For assay [1], the system named is Uromyces phaseoli. The experiment in a line: whole plant or invertebrate. The conditions noted are these: foliar, 24 h, read-out: Percent Disease Control, curative, bean rust.
For assay [2], the system named is Pythium ultimum. The experiment in a line: Mycelial growth test. The conditions noted are these: Globisporangium ultimum, 72 h, PU, read-out: Percent Fungus Growth Inhibition. The format is cell-based.
For assay [3], the system named is Venturia inaequalis. The experiment in a line: Spore germination test. The assay is classed as cell-based. The settings on record: VI, 48 hours. The essentials: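 Compound from acetone stock mixed into water agar at 40, 10, 2.5 and 1 ppm; plated quadrants inoculated with spore suspension in sterile water. Incubation 48 hours at 24° C, then percentage of germinated spores counted and converted to a germination rating.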

Broadly, the inhibition is the share of the control response that was lost under treatment. `O=C(Nc1ccccc1)Nc1ccc(Oc2nsnc(Cl)c2=O)cc1` [Compound 29, 3-chloro-5-[4-(3-phenylureido)-phenoxy]-4H--1,2,6-thiadiazin-4-one]: the pest or weed control at 150 ppm in assay [1] was determined as 0%. Besides, in assay [2], the inhibition at 5 ppm turned out to be 0%, the inhibition at 10 ppm was found to be 0%, the inhibition at 20 ppm amounted to 0% and the inhibition at 40 ppm came out at 0%. For the same molecule, the “Spore Germination Rating” value in assay [3] (1.0 ppm) was 4 (80-100). For the same molecule, in assay [3] (2.5 ppm), the “Spore Germination Rating” value is 4 (80-100). Besides, the “Spore Germination Rating” value in assay [3] (10 ppm) is recorded as 4 (80-100). The “Spore Germination Rating” value in assay [3] (40 ppm) is 0 (0-10).
As to `O=c1c(Cl)nsnc1Oc1c(Cl)cc(Cl)cc1Cl` [Compound 30, 3-chloro-5-(2,4,6-trichlorophenoxy)-4H--1,2,6-thiadiazin-4-one], in assay [1], the pest or weed control at 150 ppm stood at 0%. Moreover, in assay [2], the inhibition at 5 ppm was found to be 20%. Moreover, the inhibition at 10 ppm in assay [2] was 71%. Also, the inhibition at 20 ppm in assay [2] was determined as 96%. Also, the inhibition at 40 ppm in assay [2] was determined as 100%. For the same molecule, the “Spore Germination Rating” value in assay [3] (1.0 ppm) is 1 (10-40); in assay [3] (2.5 ppm), 0 (0-10); in assay [3] (10 ppm), 0 (0-10); in assay [3] (40 ppm) it was 0 (0-10).
Turning to `O=c1c(Cl)nsnc1Oc1c(Cl)c(Cl)c(Cl)c(Cl)c1Cl` [Compound 31, 3-chloro-5-(pentachlorophenoxy)-4H--1,2,6-thiadiazine-4-one], the pest or weed control at 150 ppm in assay [1] was determined as 0%. Further, in assay [2], the inhibition at 5 ppm stood at 0%, the inhibition at 10 ppm was 0%, the inhibition at 20 ppm turned out to be 0% and the inhibition at 40 ppm amounted to 0%. In assay [3] (1.0 ppm), the “Spore Germination Rating” value was 0 (0-10). Moreover, the “Spore Germination Rating” value in assay [3] (2.5 ppm) is 0 (0-10). Also, the “Spore Germination Rating” value in assay [3] (10 ppm) was 0 (0-10). For the same molecule, in assay [3] (40 ppm), the “Spore Germination Rating” value is 0 (0-10).
Turning to `O=c1c(Cl)nsnc1Oc1cccc2ccccc12` [Compound 32, 3-chloro-5(1-naphthoxy)-4H-1,2,6-thiadiazin-4-one], the pest or weed control at 150 ppm in assay [1] is 0%. In assay [2], the inhibition at 5 ppm came to 73%, the inhibition at 10 ppm worked out at 73%, the inhibition at 20 ppm stood at 100% and the inhibition at 40 ppm was 100%. The “Spore Germination Rating” value in assay [3] (1.0 ppm) is given as 3 (60-80). Besides, the “Spore Germination Rating” value in assay [3] (2.5 ppm) is given as 0 (0-10). The “Spore Germination Rating” value in assay [3] (10 ppm) was 0 (0-10). In assay [3] (40 ppm), the “Spore Germination Rating” value is recorded as 0 (0-10).
As for `O=c1c(Cl)nsnc1Oc1ccccc1Br` [Compound 34, 3-chloro-5-(2-bromophenoxy)-4H-1,2,6,-thiadiazin-4-one], the pest or weed control at 150 ppm in assay [1] worked out at 0%. In assay [2], the inhibition at 5 ppm stood at 0%, the inhibition at 10 ppm stood at 64%, the inhibition at 20 ppm was 87% and the inhibition at 40 ppm worked out at 100%. For the same molecule, the “Spore Germination Rating” value in assay [3] (1.0 ppm) is reported as 0 (0-10). Moreover, the “Spore Germination Rating” value in assay [3] (2.5 ppm) is 0 (0-10). Further, in assay [3] (10 ppm), the “Spore Germination Rating” value is reported as 0 (0-10). Besides, in assay [3] (40 ppm), the “Spore Germination Rating” value is 0 (0-10).
Regarding `CC(=O)Nc1cccc(Oc2nsnc(Cl)c2=O)c1` [Compound 42, 3-[(3-N--acetylamino)-phenoxy]-5-chloro-4H--1,2,6-thiadiazin-4-one], in assay [1], the pest or weed control at 150 ppm was 0%. In assay [2], the inhibition at 5 ppm was 0%, the inhibition at 10 ppm is 42%, the inhibition at 20 ppm is 100% and the inhibition at 40 ppm was found to be 100%. For the same molecule, the “Spore Germination Rating” value in assay [3] (1.0 ppm) is 4 (80-100). In addition, the “Spore Germination Rating” value in assay [3] (2.5 ppm) was 4 (80-100). In assay [3] (10 ppm), the “Spore Germination Rating” value is recorded as 4 (80-100). The “Spore Germination Rating” value in assay [3] (40 ppm) is listed as 1 (10-40).
`CC(=O)Nc1ccccc1Oc1nsnc(Cl)c1=O` [Compound 43, 3-[(2-acetylamino)-phenoxy]-5-chloro-4H--1,2,6-thiadiazin-4-one]: the pest or weed control at 150 ppm in assay [1] is 0%. In assay [2], the inhibition at 5 ppm came to 0%, the inhibition at 10 ppm was determined as 0%, the inhibition at 20 ppm is 0% and the inhibition at 40 ppm is 0%. Further, in assay [3] (1.0 ppm), the “Spore Germination Rating” value is recorded as 4 (80-100). The “Spore Germination Rating” value in assay [3] (2.5 ppm) was 4 (80-100). Further, the “Spore Germination Rating” value in assay [3] (10 ppm) is listed as 4 (80-100). The “Spore Germination Rating” value in assay [3] (40 ppm) is 2 (40-60).
Turning to `O=c1c(Cl)nsnc1Oc1cccc(C(F)(F)F)c1` [Compound 44, 3-chloro-5-[(3-trifluoromethyl)phenoxy]-4H--1,2,6-thiadiazin-4-one], the pest or weed control at 150 ppm in assay [1] was 0%. In assay [2], the inhibition at 5 ppm was determined as 100%, the inhibition at 10 ppm was 100%, the inhibition at 20 ppm was found to be 100% and the inhibition at 40 ppm was found to be 100%. For the same molecule, the “Spore Germination Rating” value in assay [3] (1.0 ppm) is 1 (10-40). Moreover, in assay [3] (2.5 ppm), the “Spore Germination Rating” value is reported as 1 (10-40). The “Spore Germination Rating” value in assay [3] (10 ppm) is listed as 0 (0-10). In addition, the “Spore Germination Rating” value in assay [3] (40 ppm) is on record as 0 (0-10).
Turning to `O=C(O)Cc1ccccc1Oc1nsnc(Cl)c1=O` [Compound 45, 3-(2-carboxymethylphenoxy)-5-chloro-4H--1,2,6-thiadiazin-4-one], in assay [1], the pest or weed control at 150 ppm amounted to 0%. Further, in assay [2], the inhibition at 5 ppm amounted to 0%, the inhibition at 10 ppm is 42%, the inhibition at 20 ppm was found to be 69% and the inhibition at 40 ppm was found to be 100%. Also, the “Spore Germination Rating” value in assay [3] (1.0 ppm) is given as 4 (80-100). Further, the “Spore Germination Rating” value in assay [3] (2.5 ppm) is recorded as 4 (80-100). Also, the “Spore Germination Rating” value in assay [3] (10 ppm) is 4 (80-100). Besides, the “Spore Germination Rating” value in assay [3] (40 ppm) is on record as 0 (0-10).
For the molecule `CC(=O)c1ccc(Oc2nsnc(Cl)c2=O)cc1` [Compound 47, 3-(4-acetylphenoxy)-5-chloro-4H--1,2,6-thiadiazin-4-one], in assay [1], the pest or weed control at 150 ppm came out at 0%. Besides, the inhibition at 5 ppm in assay [2] came to 71%. Besides, the inhibition at 10 ppm in assay [2] stood at 100%. Also, the inhibition at 20 ppm in assay [2] came out at 100%. The inhibition at 40 ppm in assay [2] was found to be 100%. Also, the “Spore Germination Rating” value is 1 (10-40) in assay [3] (1.0 ppm), 0 (0-10) in assay [3] (2.5 ppm), 0 (0-10) in assay [3] (10 ppm) and 0 (0-10) in assay [3] (40 ppm).
Consider `CC(=O)c1cccc(Oc2nsnc(Cl)c2=O)c1` [Compound 48, 3-(3-acetylphenoxy)-5-chloro-4H--1,2,6-thiadiazin-4-one], for which the pest or weed control at 150 ppm in assay [1] came out at 0%. In assay [2], the inhibition at 5 ppm stood at 78%, the inhibition at 10 ppm stood at 42%, the inhibition at 20 ppm amounted to 100% and the inhibition at 40 ppm stood at 100%. Further, in assay [3] (1.0 ppm), the “Spore Germination Rating” value was 3 (60-80). Moreover, the “Spore Germination Rating” value in assay [3] (2.5 ppm) was 1 (10-40). The “Spore Germination Rating” value in assay [3] (10 ppm) was 0 (0-10). In addition, the “Spore Germination Rating” value in assay [3] (40 ppm) is 0 (0-10).
With `CC(=O)c1ccccc1Oc1nsnc(Cl)c1=O` [Compound 49, 3-(2-acetylphenoxy)-5-chloro-4H--1,2,6-thiadiazin-4-one], the pest or weed control at 150 ppm in assay [1] stood at 0%. Also, in assay [2], the inhibition at 5 ppm stood at 47%. Also, the inhibition at 10 ppm in assay [2] is 87%. Besides, in assay [2], the inhibition at 20 ppm amounted to 96%. The inhibition at 40 ppm in assay [2] amounted to 100%. The “Spore Germination Rating” value in assay [3] (1.0 ppm) is given as 4 (80-100); in assay [3] (2.5 ppm), 4 (80-100); in assay [3] (10 ppm), 1 (10-40); in assay [3] (40 ppm), 0 (0-10).
As for `O=C(O)c1ccc(Oc2nsnc(Cl)c2=O)cc1` [Compound 50, 3-(4-carboxyphenoxy)-5-chloro-4H--1,2,6-thiadiazin-4-one], the pest or weed control at 150 ppm in assay [1] stood at 0%. Moreover, in assay [2], the inhibition at 5 ppm came out at 20%, the inhibition at 10 ppm turned out to be 0%, the inhibition at 20 ppm came out at 47% and the inhibition at 40 ppm came to 100%. Further, the “Spore Germination Rating” value in assay [3] (1.0 ppm) was 4 (80-100). For the same molecule, in assay [3] (2.5 ppm), the “Spore Germination Rating” value is on record as 4 (80-100). Further, the “Spore Germination Rating” value in assay [3] (10 ppm) is listed as 4 (80-100). In addition, the “Spore Germination Rating” value in assay [3] (40 ppm) is 0 (0-10).
With `Cc1cc(Oc2nsnc(Cl)c2=O)ccc1Cl` [Compound 54, 3-chloro-5-(4-chloro-3-methylphenoxy)-4H--1,2,6-thiadiazin-4-one], the pest or weed control at 150 ppm in assay [1] was 0%. In addition, in assay [2], the inhibition at 5 ppm was 42%, the inhibition at 10 ppm was 60%, the inhibition at 20 ppm was 71% and the inhibition at 40 ppm was determined as 87%. For the same molecule, in assay [3] (1.0 ppm), the “Spore Germination Rating” value is listed as 1 (10-40). In addition, in assay [3] (2.5 ppm), the “Spore Germination Rating” value is 0 (0-10). Moreover, the “Spore Germination Rating” value in assay [3] (10 ppm) is recorded as 0 (0-10). For the same molecule, in assay [3] (40 ppm), the “Spore Germination Rating” value is given as 0 (0-10).

These data come from patent publication US4450269A, “Mono-5-substituted-3-chloro-4H-1,2,6-thiadiazin-4-one antifungal agents” (FMC Corporation, priority 1980, dated 1984).
